Assay results taken from patent US20250084091A1, “INHIBITORS OF SARS-COV-2” (The Texas A&M University System, priority 2021, published 2025).
Values after ≈ are worked out from the molar mass of the structure shown.

Columns and labels:
[1] = Uninfected host cell cytotoxicity counter screen; format: cell-based; conditions: human
How it was run: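 HeLa-ACE2 cells, uninfected, seeded at 400 cells/well with compounds and held 24 hours at 37° C., 5% CO2. Dead cells stained with Image-iT DEAD green, fixed in 4% paraformaldehyde, DAPI-counterstained and imaged. Data normalized to DMSO and 40 μM puromycin controls; concentration responses in triplicate.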

[2] = system: SARS-CoV-2 (strain USA-WA1/2020); test: microbe, parasite or virus in culture; format: cell-based; conditions: Severe acute respiratory syndrome coronavirus 2; Table 2; SARS-CoV-2 infected HeLa-ACE2 cells; read-out: CoV-2 HeLa EC50
[3] = system: CoV-2 in Vero cells; test: CoV-2 Vero antiviral assay; format: cell-based, SARS-CoV-2; conditions: Severe acute respiratory syndrome coronavirus 2, Vero, read-out: CoV-2 Vero EC50/100
[4] = target: SARS-CoV-2 main protease (Mpro) (Severe acute respiratory syndrome coronavirus 2, UniProt P0DTD1); test: biochemical; conditions: Table 2; read-out: Enzyme IC50
[5] = system: HeLa-ACE2 cells; test: cells; format: cell-based; conditions: Table 2, total cell count in infected plates

## Nc1cncc(C(=O)N2CCN(C3c4ccccc4CCc4ccccc43)CC2)c1 [ZS-342, (5-amino-3-pyridyl)-[4-(2-tricyclo[9.4.0.03,8]pentadeca-1(11),3(8),4,6,12,14-hexaenyl)piperazin-1-yl]methanone]
[1]
  CC50 at 24 h: > 39.8 µM
[2]
  EC50: 406 nM
[3]
  EC50: 5 µg/mL (≈ 12.5 µM)
[4]
  IC50: 150 nM
[5]
  EC50: 1180 nM

## Cc1cncc(C(=O)N2CCN(C3c4ccccc4NC(=O)c4ccccc43)CC2)c1 (stereo not drawn) [ZS-355, 11-[4-(5-methylpyridine-3-carbonyl)piperazin-1-yl]-5,11-dihydrobenzo[c][1]benzazepin-6-one]
[1]
  CC50 at 24 h: > 39.8 µM
[2]
  EC50: 223 nM
[3]
  EC50: 20 µg/mL (≈ 48.5 µM)
[4]
  IC50: 53 nM
[5]
  EC50: 377 nM

## CC(=O)Nc1cncc(C(=O)N2CCN(C3c4ccccc4CCc4ccccc43)CC2)c1 [ZS-361, N-[5-[4-(2-tricyclo[9.4.0.03,8]pentadeca-1(11),3(8),4,6,12,14-hexaenyl)piperazine-1-carbonyl]-3-pyridyl]acetamide]
[1]
  CC50 at 24 h: 34.2 µM
[2]
  EC50: 1180 nM
[3]
  EC50: 20 µg/mL (≈ 45.4 µM)
[4]
  IC50: 44 nM
[5]
  EC50: 4320 nM
